The test concerns HRE-bla ME-180 cells. The test is described as follows: Reporter gene assay (HRE-bla ME-180 HIF reporter, GeneBLAzer). The test is classed as cell-based, human. To be noted: for EC50: 24 hour normoxia. The protocol:
The following reagents were used:
• DMEM+GutaMAX: (#10569044, Invitrogen) • Black clear bottom plates: (#3603, Costar) • HRE-bla-ME-180 cell line: (#K1644, Invitrogen) • Gene-Blazer reagent & protocol: (#K1096, Invitrogen) • Plate reader: Biotek Synergy 2 • Chetomin: (C9623, Sigma)
4 hours prior to experiment: HRE-bla ME-180 cells were seeded at a density of 20,000 cells/well in a volume of 180 μl in black clear bottom 96-well plates. 180 μl of assay medium was added to the cell-free control wells. Incubation was conducted at 37° C., 5% CO2 for 4 hours.
Diluted chetomin was used as a positive control. Chetomin was diluted in 100% DMSO to a 10 mM stock concentration. A 1 mM stock of chetomin was prepared in 100% DMSO. Then the 1 mM chetomin stock was serially diluted in 1:4 in 100% DMSO. Finally, 50, 12.5, 3.125, 0.78, 0.2, 0.05 μM stock of chetomin in 5% DMSO/water were prepared by adding 114 μL water+6 μL chetomin in DMSO.
Test peptides were diluted before use. The test peptides were diluted in 100% DMSO to a 10 mM stock concentration. Then each 10 mM peptide stock was diluted in 1:3 in 100% DMSO. Finally, 300, 100, 33.3, 11.1, 3.7, 1.2 μM stock of each peptide in 5% DMSO/water were prepared by adding 129.2 μL water+4 μL peptide in DMSO.
20 μl of peptide, chetomin dilution, or DMSO/water control were added to the appropriate wells of a plate to achieve 200 μL final volumes in 0.3% DMSO/media. The plate was first incubated for 18-20 hours in normoxia incubator (37° C. in humidified 5% CO2, 20% O2 atmosphere). Then the plate was transferred to hypoxia incubator for 24 hours (37° C. in humidified 5% CO2, 1% O2 atmosphere)
6× LiveBLAzer™-FRET B/G (CCF4-AM) Substrate Mixture was prepared according to CellSensor™ HRE-bla ME-180 Cell-based Assay Protocol (Invitrogen) and added into each well. Solution A (CCF4-AM) was reconstituted in DMSO to a working concentration of 1 mM, divided in aliquots, and stored at −20° C. The 6× LiveBLAzer-FRET B/G (CCF4-AM) Substrate mixture was prepared by mixing 6 μl of Solution A, 60 μl of Solution B, and 934 μl Solution C.
The plates were removed from incubator and equilibrated to RT for a few minutes. Then 20 μl of 6× Substrate mixture was added to each well. The plates were then incubated at room temperature for 3 hr in the dark and read at 409 Ex/460Em and 409Ex/530Em using the “GeneBlazer-Tungsten with export” program on the Synergy 2.
The average percentage of maximum inhibition was obtained by comparing the peptide treated cells (30 μM) to DMSO vehicle control treated cells. The results are shown in the columns “ME-180 HIF Reporter EC50 (μM) −24 hr normoxia” and “18 h Avg % max inhibition at top conc (HIF Rptr-24 hrsnormoxia) (μM)” of Table 6.

Bridge positions count the residues as written; N and C are the ends. Square brackets hold non-standard residues; d marks the D form. Peptide text beside a SMILES is read from it. S5 = C=CCCC[C@](C)(N)C(=O)O; Nle = CCCC[C@H](N)C(=O)O A value given as a limit tells only on which side of the number the result lay.

The values that follow come from patent US20190225650A1, “PEPTIDOMIMETIC MACROCYCLES AND USE THEREOF IN REGULATING HIF1ALPHA” (AILERON THERAPEUTICS, INC., priority 2013, published 2019).

For `CC[C@H](C)[C@H](NC(=O)[C@H](Cc1ccccc1)NC(C)=O)C(=O)N[C@@H](CC(=O)O)C(=O)N[C@@H](CCC(=O)O)C(=O)N[C@@H](CCC(=O)O)C(=O)N[C@H](C(=O)N[C@@H](CC(C)C)C(=O)N[C@@H](CCSC)C(=O)N[C@@]1(C)CCCC=CCCC[C@@](C)(C(=O)N[C@@H](CCSC)C(=O)N[C@@H](C)C(=O)N[C@@H](CC(C)C)C(=O)N[C@@H](CC(=O)O)C(=O)N[C@@H](CCCNC(=N)N)C(=O)N[C@H](C(=O)N[C@@H](CCCCN)C(=O)N[C@@H](CCC(=O)O)C(=O)N[C@@H](CC(C)C)C(=O)N2CCC[C@H]2C(=O)N[C@@H](CCC(=O)O)C(=O)N[C@@H](CC(C)C)C(=O)N[C@@H](Cc2c[nH]c3ccccc23)C(=O)N[C@@H](CC(C)C)C(N)=O)[C@@H](C)CC)NC(=O)[C@H]([C@@H](C)CC)NC(=O)[C@H](C(C)C)NC(=O)[C@H](CC(C)C)NC1=O)C(C)C` [SP-3] (Ac-FIDEEVLM[S5]LVI[S5]MALDRIKELPELWL-NH2; staple 9-13), the “18 h Avg % max inhibition at top conc (HIF Rptr-24 hrs normoxia) (μM)” value (“18 h Avg % max inhibition at top conc” below) is listed as “+++ (≤25 but <50: +++)” and the EC50 (in general, the midpoint of the concentration-response curve) is more than 30 µM.
`CCCC[C@H](NC(=O)[C@H](CC(C)C)NC(=O)[C@@H](NC(=O)[C@H](CCC(=O)O)NC(=O)[C@H](CCC(=O)O)NC(=O)[C@H](CC(=O)O)NC(=O)[C@@H](NC(=O)[C@H](C)NC(C)=O)[C@@H](C)CC)C(C)C)C(=O)N[C@@]1(C)CCCC=CCCC[C@@](C)(C(=O)N[C@@H](CCCC)C(=O)N[C@@H](C)C(=O)N[C@@H](CC(C)C)C(=O)N[C@@H](CC(=O)O)C(=O)N[C@@H](CCCNC(=N)N)C(=O)N[C@H](C(N)=O)[C@@H](C)CC)NC(=O)[C@H]([C@@H](C)CC)NC(=O)[C@H](C(C)C)NC(=O)[C@H](CC(C)C)NC1=O` [SP-9] (Ac-AIDEEVL[Nle][S5]LVI[S5][Nle]ALDRI-NH2; staple 9-13): the “18 h Avg % max inhibition at top conc” value is reported as “+++ (≤25 but <50: +++)” and the 50% effective concentration (EC50) is 15 to 30 µM.
For `CCCC[C@H](NC(=O)[C@H](CC(C)C)NC(=O)[C@@H](NC(=O)[C@H](CCC(=O)O)NC(=O)[C@H](CCC(=O)O)NC(=O)[C@H](C)NC(=O)[C@@H](NC(=O)[C@H](Cc1ccccc1)NC(C)=O)[C@@H](C)CC)C(C)C)C(=O)N[C@@]1(C)CCCC=CCCC[C@@](C)(C(=O)N[C@@H](CCCC)C(=O)N[C@@H](C)C(=O)N[C@@H](CC(C)C)C(=O)N[C@@H](CC(=O)O)C(=O)N[C@@H](CCCNC(=N)N)C(=O)N[C@H](C(N)=O)[C@@H](C)CC)NC(=O)[C@H]([C@@H](C)CC)NC(=O)[C@H](C(C)C)NC(=O)[C@H](CC(C)C)NC1=O` [SP-11] (Ac-FIAEEVL[Nle][S5]LVI[S5][Nle]ALDRI-NH2; staple 9-13), the “18 h Avg % max inhibition at top conc” value is on record as “++++ (≥50: ++++)” and the EC50 fell in the range of 5 to 15 µM.
`CCCC[C@H](NC(=O)[C@H](CC(C)C)NC(=O)[C@@H](NC(=O)[C@H](CCC(=O)O)NC(=O)[C@H](C)NC(=O)[C@H](CC(=O)O)NC(=O)[C@@H](NC(=O)[C@H](Cc1ccccc1)NC(C)=O)[C@@H](C)CC)C(C)C)C(=O)N[C@@]1(C)CCCC=CCCC[C@@](C)(C(=O)N[C@@H](CCCC)C(=O)N[C@@H](C)C(=O)N[C@@H](CC(C)C)C(=O)N[C@@H](CC(=O)O)C(=O)N[C@@H](CCCNC(=N)N)C(=O)N[C@H](C(N)=O)[C@@H](C)CC)NC(=O)[C@H]([C@@H](C)CC)NC(=O)[C@H](C(C)C)NC(=O)[C@H](CC(C)C)NC1=O` [SP-12] (Ac-FIDAEVL[Nle][S5]LVI[S5][Nle]ALDRI-NH2; staple 9-13): the “18 h Avg % max inhibition at top conc” value was “++++ (≥50: ++++)” and the EC50 is 5 to 15 µM.
As for `CCCC[C@H](NC(=O)[C@H](CC(C)C)NC(=O)[C@@H](NC(=O)[C@H](C)NC(=O)[C@H](CCC(=O)O)NC(=O)[C@H](CC(=O)O)NC(=O)[C@@H](NC(=O)[C@H](Cc1ccccc1)NC(C)=O)[C@@H](C)CC)C(C)C)C(=O)N[C@@]1(C)CCCC=CCCC[C@@](C)(C(=O)N[C@@H](CCCC)C(=O)N[C@@H](C)C(=O)N[C@@H](CC(C)C)C(=O)N[C@@H](CC(=O)O)C(=O)N[C@@H](CCCNC(=N)N)C(=O)N[C@H](C(N)=O)[C@@H](C)CC)NC(=O)[C@H]([C@@H](C)CC)NC(=O)[C@H](C(C)C)NC(=O)[C@H](CC(C)C)NC1=O` [SP-13] (Ac-FIDEAVL[Nle][S5]LVI[S5][Nle]ALDRI-NH2; staple 9-13), the “18 h Avg % max inhibition at top conc” value is “++++ (≥50: ++++)” and the half-maximal effective concentration (EC50) fell in the range of 5 to 15 µM.
Turning to `CCCC[C@H](NC(=O)[C@H](CC(C)C)NC(=O)[C@H](C)NC(=O)[C@H](CCC(=O)O)NC(=O)[C@H](CCC(=O)O)NC(=O)[C@H](CC(=O)O)NC(=O)[C@@H](NC(=O)[C@H](Cc1ccccc1)NC(C)=O)[C@@H](C)CC)C(=O)N[C@@]1(C)CCCC=CCCC[C@@](C)(C(=O)N[C@@H](CCCC)C(=O)N[C@@H](C)C(=O)N[C@@H](CC(C)C)C(=O)N[C@@H](CC(=O)O)C(=O)N[C@@H](CCCNC(=N)N)C(=O)N[C@H](C(N)=O)[C@@H](C)CC)NC(=O)[C@H]([C@@H](C)CC)NC(=O)[C@H](C(C)C)NC(=O)[C@H](CC(C)C)NC1=O` [SP-14] (Ac-FIDEEAL[Nle][S5]LVI[S5][Nle]ALDRI-NH2; staple 9-13), the “18 h Avg % max inhibition at top conc” value was “++++ (≥50: ++++)” and the EC50 is 5 to 15 µM.
`CCCC[C@H](NC(=O)[C@H](C)NC(=O)[C@@H](NC(=O)[C@H](CCC(=O)O)NC(=O)[C@H](CCC(=O)O)NC(=O)[C@H](CC(=O)O)NC(=O)[C@@H](NC(=O)[C@H](Cc1ccccc1)NC(C)=O)[C@@H](C)CC)C(C)C)C(=O)N[C@@]1(C)CCCC=CCCC[C@@](C)(C(=O)N[C@@H](CCCC)C(=O)N[C@@H](C)C(=O)N[C@@H](CC(C)C)C(=O)N[C@@H](CC(=O)O)C(=O)N[C@@H](CCCNC(=N)N)C(=O)N[C@H](C(N)=O)[C@@H](C)CC)NC(=O)[C@H]([C@@H](C)CC)NC(=O)[C@H](C(C)C)NC(=O)[C@H](CC(C)C)NC1=O` [SP-15] (Ac-FIDEEVA[Nle][S5]LVI[S5][Nle]ALDRI-NH2; staple 9-13): the “18 h Avg % max inhibition at top conc” value is given as “++++ (≥50: ++++)” and the EC50 was not above 5 µM.
With `CCCC[C@H](NC(=O)[C@]1(C)CCCC=CCCC[C@](C)(NC(=O)[C@H](C)NC(=O)[C@H](CC(C)C)NC(=O)[C@@H](NC(=O)[C@H](CCC(=O)O)NC(=O)[C@H](CCC(=O)O)NC(=O)[C@H](CC(=O)O)NC(=O)[C@@H](NC(=O)[C@H](Cc2ccccc2)NC(C)=O)[C@@H](C)CC)C(C)C)C(=O)N[C@@H](CC(C)C)C(=O)N[C@@H](C(C)C)C(=O)N[C@@H]([C@@H](C)CC)C(=O)N1)C(=O)N[C@@H](C)C(=O)N[C@@H](CC(C)C)C(=O)N[C@@H](CC(=O)O)C(=O)N[C@@H](CCCNC(=N)N)C(=O)N[C@H](C(N)=O)[C@@H](C)CC` [SP-16] (Ac-FIDEEVLA[S5]LVI[S5][Nle]ALDRI-NH2; staple 9-13), the “18 h Avg % max inhibition at top conc” value is on record as “++++ (≥50: ++++)” and the EC50 is not above 5 µM.
`CCCC[C@H](NC(=O)[C@H](CC(C)C)NC(=O)[C@@H](NC(=O)[C@H](CCC(=O)O)NC(=O)[C@H](CCC(=O)O)NC(=O)[C@H](CC(=O)O)NC(=O)[C@@H](NC(=O)[C@H](Cc1ccccc1)NC(C)=O)[C@@H](C)CC)C(C)C)C(=O)N[C@@]1(C)CCCC=CCCC[C@@](C)(C(=O)N[C@@H](CCCC)C(=O)N[C@@H](C)C(=O)N[C@@H](CC(C)C)C(=O)N[C@@H](CC(=O)O)C(=O)N[C@@H](CCCNC(=N)N)C(=O)N[C@H](C(N)=O)[C@@H](C)CC)NC(=O)[C@H]([C@@H](C)CC)NC(=O)[C@H](C(C)C)NC(=O)[C@H](C)NC1=O` [SP-17] (Ac-FIDEEVL[Nle][S5]AVI[S5][Nle]ALDRI-NH2; staple 9-13): the “18 h Avg % max inhibition at top conc” value is listed as “++++ (≥50: ++++)” and the EC50 was 5 to 15 µM.
